Data taken from ChEMBL document CHEMBL3244159, “Ultraviolet photoelectron spectroscopy of cyclic amidines. 1. Electronic structure of some alpha-adrenergic benzylimidazolines” (J Med Chem, 1979).

Legend:
Oryctolagus cuniculus = species on record: Oryctolagus cuniculus; assay: Binding affinity to alpha-adrenergic receptor in rabbit jejunum; assay type: tissue-based
[1] = target: Adrenergic receptor alpha; assay: Displacement of [3H]clonidine from alpha-adrenergic receptor in rat brain; assay type: tissue-based

| SMILES | pD2 (Oryctolagus cuniculus) | Ki [1] [nM] |
| --- | --- | --- |
| Cc1cc(C(C)(C)C)c(O)c(C)c1CC1=NCCN1 | 9.8 |  |
| c1ccc2c(c1)CCCC2C1=NCCN1 (stereo not given) [TETRAHYDROZOLINE] | 6.5 | 11 |
| Cc1cc(C(C)(C)C)cc(C)c1CC1=NCCN1 | 7.1 |  |
| c1ccc2c(CC3=NCCN3)cccc2c1 | 7.1 |  |
